From patent US20190380954A1, “Bone Regeneration Agent” (Kao Corporation, priority 2017, published 2019)

Assays:
[1] = tested on: alveolar bone of rats with ligature-induced periodontitis; details: niacin 25 mM in PBS, 100 μL dropped onto right and left second molars twice a day for 4 weeks after ligature removal; compared to PBS group; base line group 0%, Sham group 100%; Tukey, 5%
Description: Twenty-eight 8-week-old male Wister Rats were purchased from Japan SLC, Inc., and the rats were acclimated for one week. Subsequently, the body weights of the rats were measured, and the rats were assigned into four groups (base line group, Sham group, PBS group, and niacin group) such that the average body weights of the groups would be even.
Under isoflurane inhalation anesthesia, No. 3-0 nylon sutures (manufactured by Akiyama Seisakusho Co., Ltd.) were ligated to the right and left second molars in the upper jaw of the rats of the base line group, PBS group, and niacin group to induce periodontitis, and the rats of the respective groups were reared for two weeks. […]
After rearing for two weeks, the ligatures (No. 3-0 nylon sutures described above) were excised from the rats of the PBS group and the niacin group. For the base line group, the rats were euthanized by bleeding from the abdominal aorta under isoflurane inhalation anesthesia, and the alveolar bone resorption depths of the respective groups were measured by the following method. […]
The alveolar bone regeneration amount of the base line group was designated as 0%, and the alveolar bone regeneration amount of the Sham group was designated as 100%. Thus, the alveolar bone regeneration amounts of the PBS group and the niacin group were calculated from the average alveolar bone resorption depth thus calculated. […]

gums = details: niacin or an ester compound thereof, intraoral composition; cited from earlier work
[2] = tested on: gums / periodontal pocket; details: blood circulation enhancers such as vitamin E; cited from earlier work
[3] = tested on: periodontal disease model rat; details: suppression of alveolar bone resorption is not reported; cited from earlier work

| Molecule | regeneration amount of the alveolar bone [1] | blood circulation in the gums (gums) | Gingival index (swelling of gums) [2] | Periodontal probing depth (depth of periodontal pocket, reflecting extent of alveolar bone resorption) [2] | inflammatory response [3] |
| --- | --- | --- | --- | --- | --- |
| O=C(O)c1cccnc1 [niacin, niacin (nicotinic acid)] | significantly increased | promotes blood circulation in the gums | – | – | – |
| vitamin E | – | – | do not improve | do not improve | suppresses inflammatory response |
